Publication PMC11845477, “Exploring the principles behind antibiotics with limited resistance” (Nature Communications, 2025)
Where a SMILES comes first, the peptide text is derived from it. Bridges are numbered along the chain shown (N, C = ends). [ ]: non-standard residue; d: D form. The star is where a group is joined. X1 = NC[C@@H](CC(=O)*)c1cccc(Cl)c1; Dab = NCC[C@H](N)C(=O)O; Dap = NC[C@H](N)C(=O)O

Tests used:
[1] = system: K. pneumoniae ATCC 10031 (SEN) and K. pneumoniae ATCC 700603 (MDR); test: Frequency-of-resistance (FoR) assay, relative MIC of mutants; format: cell-based, Klebsiella pneumoniae
Description: (§1) The susceptibility of antibiotics to resistance development was evaluated in two strains of each bacterial species: a multidrug-resistant strain and an antibiotic-sensitive strain of Escherichia coli, Klebsiella pneumoniae, Acinetobacter baumannii, and Pseudomonas aeruginosa. To explore first-step resistance, we previously used a standard protocol for spontaneous frequency-of-resistance analysis (FoR assay) at multiple concentrations of each antibiotic[10],[28],[31]–[33]. […] For all other combinations, approximately 10^10 bacterial cells were exposed to one of each antibiotic on agar plates for two days at concentrations where the given strain is susceptible. We examined resistance levels by contrasting the minimum inhibitory concentration (MICs) of the mutated strains to the original wild-type bacterial strain (i.e., relative MIC).
(§2) To estimate the frequency of spontaneous mutations that confer resistance in a microbial population, we conducted a frequency of resistance (FoR) assay following established protocols[10],[31]–[33]. […] Prior to plating, bacteria were grown overnight in MHB medium at 37 °C and 250 RPM, then centrifuged and washed in MHB. All experiments were performed in triplicate, and plates were incubated at 37 °C for 48 hours. Total colony-forming units (CFUs) were determined by plating appropriate dilutions onto antibiotic-free MHB agar. Resistance frequencies were calculated by dividing the number of resistant colonies by the initial viable cell count. From the plates with the highest antibiotic concentration, ten colonies were selected for MIC determination and whole-genome sequencing.
(§3) A robotic liquid handling system was used to automatically prepare a 11 to 16-step serial dilution in 384-well microtiter plates (Greiner). A final concentration of 5 × 10^5 bacterial cells per mL were inoculated into each well containing 60 µL MHB medium. Bacterial cultures were incubated at 37 °C with continuous shaking (Infors shaker, 900 rpm with 3 mm throw) for 18 hours (2 replicates from each). Cell growth was monitored by measuring the optical density (OD600 values, using Biotek Synergy microplate reader). MIC was defined as the antibiotic concentration of complete growth inhibition (i.e., OD600 < 0.05). Relative MIC was calculated as follows:1 relativeMIC=MICevolved/MICancestor […]
(§4) Supplementary Figure 3. Resistance levels following the frequency of resistance assay across bacterial strains. The level of resistance was measured as the fold change in relative MIC between evolved and ancestral strains. Data are grouped by bacterial strain (A. baumannii (AB), E. coli (EC), K. pneumoniae (KP), and P. aeruginosa (PA)) and categorized as either multidrug-resistant (MDR) or sensitive (SEN). Each data point represents a laboratory evolved line, and boxplots show the median, first and third quartiles, with whiskers indicating the 5th and 95th percentiles. […]
(§5) analysis was performed using two-sided Dunn’s post-hoc test with Benjamini-Hochberg correction for multiple comparisons (**/ * indicates p < 0.01/ 0.05). For detailed information on antibiotic and bacterial species, see Supplementary Table 1. For mode of action groups, refer to Table 1. Source data are provided as a Source Data file.

[2] = system: A. baumannii ATCC 17978 (SEN) and A. baumannii ATCC BAA-1605 (MDR); test: as above; format: cell-based, Acinetobacter baumannii
Description: as §1, §2, §3, §4, §5

[3] = FoR assay, Klebsiella pneumoniae ATCC 10031 (KP-SEN), evolved line 1
[4] = FoR assay, Klebsiella pneumoniae ATCC 10031 (KP-SEN), evolved line 2
[5] = FoR assay, Klebsiella pneumoniae ATCC 10031 (KP-SEN), evolved line 3
[6] = Klebsiella pneumoniae ATCC 10031 (KP-SEN), evolved line 1
[7] = Klebsiella pneumoniae ATCC 10031 (KP-SEN), evolved line 2
[8] = Klebsiella pneumoniae ATCC 10031 (KP-SEN), evolved line 3
[9] = Klebsiella pneumoniae ATCC 10031 (KP-SEN), evolved line 1 versus ancestor
[10] = Klebsiella pneumoniae ATCC 10031 (KP-SEN), evolved line 2 versus ancestor
[11] = Klebsiella pneumoniae ATCC 10031 (KP-SEN), evolved line 3 versus ancestor
[12] = Acinetobacter baumannii ATCC 17978 (AB-SEN), evolved line 1
[13] = Acinetobacter baumannii ATCC 17978 (AB-SEN), evolved line 2
[14] = Acinetobacter baumannii ATCC 17978 (AB-SEN), evolved line 3
[15] = Acinetobacter baumannii ATCC 17978 (AB-SEN), evolved line 1 versus ancestor
[16] = Acinetobacter baumannii ATCC 17978 (AB-SEN), evolved line 2 versus ancestor
[17] = Acinetobacter baumannii ATCC 17978 (AB-SEN), evolved line 3 versus ancestor
[18] = Acinetobacter baumannii ATCC BAA 1605 (AB-MDR), evolved line 2
[19] = Acinetobacter baumannii ATCC BAA 1605 (AB-MDR), evolved line 1
[20] = Acinetobacter baumannii ATCC BAA 1605 (AB-MDR), evolved line 1 versus ancestor
[21] = Acinetobacter baumannii ATCC BAA 1605 (AB-MDR), evolved line 2 versus ancestor
[22] = Acinetobacter baumannii ATCC BAA 1605 (AB-MDR), evolved line 3
[23] = Acinetobacter baumannii ATCC BAA 1605 (AB-MDR), evolved line 3 versus ancestor
[24] = FoR assay, Acinetobacter baumannii ATCC 17978 (AB-SEN), evolved line 1
[25] = FoR assay, Acinetobacter baumannii ATCC 17978 (AB-SEN), evolved line 2
[26] = FoR assay, Acinetobacter baumannii ATCC 17978 (AB-SEN), evolved line 3
[27] = FoR assay, Acinetobacter baumannii ATCC BAA 1605 (AB-MDR), evolved line 1
[28] = FoR assay, Acinetobacter baumannii ATCC BAA 1605 (AB-MDR), evolved line 2
[29] = FoR assay, Acinetobacter baumannii ATCC BAA 1605 (AB-MDR), evolved line 3
[30] = Klebsiella pneumoniae ATCC 700603 (KP-MDR), evolved line 1
[31] = Klebsiella pneumoniae ATCC 700603 (KP-MDR), evolved line 2
[32] = Klebsiella pneumoniae ATCC 700603 (KP-MDR), evolved line 3
[33] = Klebsiella pneumoniae ATCC 700603 (KP-MDR), evolved line 1 versus ancestor
[34] = Klebsiella pneumoniae ATCC 700603 (KP-MDR), evolved line 2 versus ancestor
[35] = Klebsiella pneumoniae ATCC 700603 (KP-MDR), evolved line 3 versus ancestor

Compound | Relative MIC [1, 3] | Relative MIC [1, 4] | Relative MIC [1, 5] | MIC of evolved line [1, 6] | MIC of evolved line [1, 7] | MIC of evolved line [1, 8] | Relative MIC [1, 9] | Relative MIC [1, 10] | Relative MIC [1, 11] | MIC of evolved line [2, 12] | MIC of evolved line [2, 13] | MIC of evolved line [2, 14] | Relative MIC [2, 15] | Relative MIC [2, 16] | Relative MIC [2, 17] | MIC of evolved line [2, 18] | MIC of evolved line [2, 22] | MIC of evolved line [1, 30] | MIC of evolved line [1, 31] | MIC of evolved line [1, 32] | further results
CC(C)c1ccc(Cn2ccc3c4c(N)nc(NC5CC5)nc4ccc32)cc1 [SCH79797] | 1 | 1 | 1 | 4 µg/mL | 4 µg/mL | 4 µg/mL | 1 | 1 | 1 | 8 µg/mL | 8 µg/mL | 8 µg/mL | 2 | 2 | 2 | 4 µg/mL | 4 µg/mL |  |  |  | MIC of evolved line [2, 19]: 2 µg/mL; Relative MIC [2, 20]: 1; Relative MIC [2, 21]: 1; Relative MIC [2, 23]: 1; Relative MIC [2, 24]: 2; Relative MIC [2, 25]: 2; Relative MIC [2, 26]: 2; Relative MIC [2, 27]: 1; Relative MIC [2, 28]: 1; Relative MIC [2, 29]: 1
CC(C)C[C@@H]1NC(=O)[C@@H](Cc2ccccc2)NC(=O)[C@H](CCN)NC(=O)[C@@H](NC(=O)[C@H](CN)NC(=O)[C@@H](NC(=O)C[C@H](CN)c2cccc(Cl)c2)[C@@H](C)O)CCNC(=O)[C@H]([C@@H](C)O)NC(=O)[C@H](CCN)NC(=O)[C@H](CCN)NC1=O [SPR206] (X1-T[Dap][Dab][Dab][dF]L[Dab][Dab]T; lactam 3-C (inferred); N-terminus assumed) | 64 | 1 | 256 | 32 µg/mL | 0.25 µg/mL | 128 µg/mL | 64 | 1 | 256 | 0.125 µg/mL | 0.125 µg/mL | 0.125 µg/mL | 1 | 1 | 1 | 0.25 µg/mL | 0.25 µg/mL | 32 µg/mL | 32 µg/mL | 32 µg/mL | Relative MIC ([1]; FoR assay, Klebsiella pneumoniae ATCC 700603 (KP-MDR), evolved line 1): 64; Relative MIC ([1]; FoR assay, Klebsiella pneumoniae ATCC 700603 (KP-MDR), evolved line 2): 64; Relative MIC ([1]; FoR assay, Klebsiella pneumoniae ATCC 700603 (KP-MDR), evolved line 3): 64; Relative MIC [1, 33]: 64; Relative MIC [1, 34]: 64; Relative MIC [1, 35]: 64; MIC of evolved line [2, 19]: 0.25 µg/mL; Relative MIC [2, 20]: 2; Relative MIC [2, 21]: 2; Relative MIC [2, 23]: 2; Relative MIC [2, 24]: 1; Relative MIC [2, 25]: 1; Relative MIC [2, 26]: 1; Relative MIC [2, 27]: 2; Relative MIC [2, 28]: 2; Relative MIC [2, 29]: 2
C[C@@H](O)[C@H]1C(=O)N2C(C(=O)O)=C(S[C@H]3CC[S@@+]([O-])C3)S[C@H]12 [Sulopenem] |  |  |  | 0.0312 µg/mL | 0.0312 µg/mL | 0.0312 µg/mL | 1 | 1 | 1 | 4 µg/mL | 4 µg/mL | 4 µg/mL | 4 | 4 | 4 |  |  | 4 µg/mL | 4 µg/mL | 8 µg/mL | Relative MIC [1, 33]: 8; Relative MIC [1, 34]: 8; Relative MIC [1, 35]: 16
polymyxin-B |  |  |  | 2 µg/mL | 2 µg/mL | 2 µg/mL |  |  |  | 0.5 µg/mL | 0.5 µg/mL | 0.5 µg/mL |  |  |  |  | 16 µg/mL | 0.5 µg/mL | 4 µg/mL | 32 µg/mL | 
